Laboratory results published in ChEMBL document CHEMBL5696439 (Cancer Res, 2010).
The source made the active and inactive calls. The rule behind the calls is not given here.

Legend:
[1] = biological target: RAC-alpha serine/threonine-protein kinase (Homo sapiens) (UniProt P31749); test: Inhibition of recombinant human full-length His-tagged AKT1 expressed in insect cells at 2 uM using Ser/Thr 06 as substrate measured after 1 hr by Z'-LYTE assay relative to control; details: Insect cell
[2] = biological target: Tyrosine-protein kinase Blk (Homo sapiens) (UniProt P51451); test: Inhibition of recombinant human full-length His-tagged BLK expressed in insect cells at 2 uM using Tyr 01 as substrate measured after 1 hr by Z'-LYTE assay relative to control; details: Insect cell
Sequence of Tyrosine-protein kinase Blk (Homo sapiens) (P51451 2-505 limits assumed): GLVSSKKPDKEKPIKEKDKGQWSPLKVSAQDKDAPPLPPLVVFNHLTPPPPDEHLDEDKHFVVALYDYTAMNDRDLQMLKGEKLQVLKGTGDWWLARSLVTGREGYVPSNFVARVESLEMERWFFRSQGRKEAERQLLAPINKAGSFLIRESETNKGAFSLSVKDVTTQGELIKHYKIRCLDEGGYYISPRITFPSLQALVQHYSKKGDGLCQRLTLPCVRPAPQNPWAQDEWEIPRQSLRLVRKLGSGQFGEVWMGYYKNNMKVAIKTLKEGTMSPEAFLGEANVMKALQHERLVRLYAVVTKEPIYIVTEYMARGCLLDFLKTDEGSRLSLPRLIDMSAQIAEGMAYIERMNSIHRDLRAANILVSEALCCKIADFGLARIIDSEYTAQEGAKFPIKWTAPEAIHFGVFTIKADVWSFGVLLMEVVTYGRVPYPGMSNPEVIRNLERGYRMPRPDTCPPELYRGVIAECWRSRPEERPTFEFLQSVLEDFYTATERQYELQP

[3] = biological target: Calcium/calmodulin-dependent protein kinase type II subunit delta (Homo sapiens) (UniProt Q13557); test: Inhibition of recombinant human full-length His-tagged CAMK2D expressed in insect cells at 2 uM using Ser/Thr 04 as substrate measured after 1 hr by Z'-LYTE assay relative to control; details: Insect cell
Sequence of Calcium/calmodulin-dependent protein kinase type II subunit delta (Homo sapiens) (Q13557 whole entry): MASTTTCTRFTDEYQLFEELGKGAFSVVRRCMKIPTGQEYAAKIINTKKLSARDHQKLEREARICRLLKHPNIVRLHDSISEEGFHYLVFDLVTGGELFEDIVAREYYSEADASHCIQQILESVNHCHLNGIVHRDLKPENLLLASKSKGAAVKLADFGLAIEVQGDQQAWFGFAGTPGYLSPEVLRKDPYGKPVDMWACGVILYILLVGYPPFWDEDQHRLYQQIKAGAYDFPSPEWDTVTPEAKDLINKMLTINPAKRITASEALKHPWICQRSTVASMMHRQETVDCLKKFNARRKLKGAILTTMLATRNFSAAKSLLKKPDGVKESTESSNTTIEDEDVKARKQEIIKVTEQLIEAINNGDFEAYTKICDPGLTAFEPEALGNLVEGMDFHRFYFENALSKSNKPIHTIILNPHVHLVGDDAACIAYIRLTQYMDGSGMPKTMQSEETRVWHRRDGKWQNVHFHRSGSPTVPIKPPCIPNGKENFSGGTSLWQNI

[4] = biological target: Cyclin-dependent kinase 1/cyclin B1 (Homo sapiens) (UniProt P06493+P14635); test: Inhibition of recombinant human full-length His-tagged CDK1/cyclin B expressed in insect cells at 2 uM using Ser/Thr 18 as substrate measured after 1 hr by Z'-LYTE assay relative to control; details: Insect cell
[5] = biological target: Receptor tyrosine-protein kinase erbB-4 (Homo sapiens) (UniProt Q15303); test: Inhibition of recombinant human GST-tagged ERBB4 (708-993 residues) expressed in insect cells at 2 uM using Tyr 01 as substrate measured after 1 hr by Z'-LYTE assay relative to control; details: Insect cell
Sequence of Receptor tyrosine-protein kinase erbB-4 (Homo sapiens) (Q15303 whole entry, the tested form may be a part): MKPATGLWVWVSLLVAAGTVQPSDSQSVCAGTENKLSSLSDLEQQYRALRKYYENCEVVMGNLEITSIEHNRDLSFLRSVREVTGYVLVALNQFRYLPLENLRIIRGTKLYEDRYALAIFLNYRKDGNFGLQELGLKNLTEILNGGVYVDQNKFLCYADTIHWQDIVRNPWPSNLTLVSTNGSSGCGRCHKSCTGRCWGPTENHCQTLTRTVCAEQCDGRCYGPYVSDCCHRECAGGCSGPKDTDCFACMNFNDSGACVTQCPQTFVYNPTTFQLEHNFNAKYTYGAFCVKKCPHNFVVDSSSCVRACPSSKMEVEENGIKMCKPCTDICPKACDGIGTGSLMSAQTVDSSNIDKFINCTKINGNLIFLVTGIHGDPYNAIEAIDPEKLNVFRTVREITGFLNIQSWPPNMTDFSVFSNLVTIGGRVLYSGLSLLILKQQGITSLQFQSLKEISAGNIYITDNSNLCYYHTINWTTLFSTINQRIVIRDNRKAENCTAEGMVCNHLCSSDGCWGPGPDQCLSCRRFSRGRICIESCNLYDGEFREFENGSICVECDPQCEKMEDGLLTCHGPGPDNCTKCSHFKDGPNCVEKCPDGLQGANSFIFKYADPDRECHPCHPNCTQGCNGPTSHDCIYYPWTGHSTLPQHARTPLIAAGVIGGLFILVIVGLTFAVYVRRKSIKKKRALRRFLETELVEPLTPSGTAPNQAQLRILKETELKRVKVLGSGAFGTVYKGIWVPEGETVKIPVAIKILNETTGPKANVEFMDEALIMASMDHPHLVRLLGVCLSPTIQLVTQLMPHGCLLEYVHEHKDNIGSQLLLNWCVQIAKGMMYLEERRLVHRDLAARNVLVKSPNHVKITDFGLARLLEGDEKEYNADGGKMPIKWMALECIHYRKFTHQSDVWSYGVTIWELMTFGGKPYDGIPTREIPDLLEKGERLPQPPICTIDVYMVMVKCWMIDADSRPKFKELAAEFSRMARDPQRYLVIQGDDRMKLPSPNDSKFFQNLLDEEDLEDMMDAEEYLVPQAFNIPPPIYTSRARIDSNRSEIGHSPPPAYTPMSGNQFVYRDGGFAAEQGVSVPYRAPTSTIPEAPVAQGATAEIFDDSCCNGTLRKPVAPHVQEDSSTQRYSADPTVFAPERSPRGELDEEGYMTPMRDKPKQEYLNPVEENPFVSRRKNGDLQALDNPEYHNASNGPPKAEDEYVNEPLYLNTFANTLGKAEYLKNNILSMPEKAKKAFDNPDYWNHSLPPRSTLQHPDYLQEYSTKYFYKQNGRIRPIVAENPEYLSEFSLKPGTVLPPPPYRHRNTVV

[6] = biological target: Receptor-type tyrosine-protein kinase FLT3 (Homo sapiens) (UniProt P36888); test: Inhibition of recombinant human His-tagged FLT3 (564-958 residues) expressed in insect cells at 2 uM using Tyr 02 as substrate measured after 1 hr by Z'-LYTE assay relative to control; details: Insect cell
[7] = biological target: Rhodopsin kinase GRK7 (Homo sapiens) (UniProt Q8WTQ7); test: Inhibition of recombinant human full-length GST-tagged GRK7 expressed in insect cells at 2 uM using Ser/Thr 16 as substrate measured after 1 hr by Z'-LYTE assay relative to control; details: Insect cell
[8] = biological target: Leukocyte tyrosine kinase receptor (Homo sapiens) (UniProt P29376); test: Inhibition of recombinant human GST-tagged LTK (450-864 residues) expressed in insect cells at 2 uM using Tyr 06 as substrate measured after 1 hr by Z'-LYTE assay relative to control; details: Insect cell
[9] = biological target: Platelet-derived growth factor receptor alpha (Homo sapiens) (UniProt P16234); test: Inhibition of recombinant human GST-tagged PDGFRA (550-1089 residues) expressed in baculovirus expression system at 2 uM using Tyr 04 as substrate measured after 1 hr by Z'-LYTE assay relative to control
[10] = biological target: cAMP-dependent protein kinase catalytic subunit alpha (Homo sapiens) (UniProt P17612); test: Inhibition of recombinant human His-tagged PRKACA (1-351 residues) expressed in E.coli at 2 uM using Ser/Thr 01 as substrate measured after 1 hr by Z'-LYTE assay relative to control
[11] = biological target: Protein kinase C beta type (Homo sapiens) (UniProt P05771); test: Inhibition of recombinant human full length GST-tagged PRKCB2 expressed in insect cells at 2 uM using Ser/Thr 07 as substrate measured after 1 hr by Z'-LYTE assay relative to control; details: Insect cell
Sequence of Protein kinase C beta type (Homo sapiens) (P05771 2-671 limits assumed): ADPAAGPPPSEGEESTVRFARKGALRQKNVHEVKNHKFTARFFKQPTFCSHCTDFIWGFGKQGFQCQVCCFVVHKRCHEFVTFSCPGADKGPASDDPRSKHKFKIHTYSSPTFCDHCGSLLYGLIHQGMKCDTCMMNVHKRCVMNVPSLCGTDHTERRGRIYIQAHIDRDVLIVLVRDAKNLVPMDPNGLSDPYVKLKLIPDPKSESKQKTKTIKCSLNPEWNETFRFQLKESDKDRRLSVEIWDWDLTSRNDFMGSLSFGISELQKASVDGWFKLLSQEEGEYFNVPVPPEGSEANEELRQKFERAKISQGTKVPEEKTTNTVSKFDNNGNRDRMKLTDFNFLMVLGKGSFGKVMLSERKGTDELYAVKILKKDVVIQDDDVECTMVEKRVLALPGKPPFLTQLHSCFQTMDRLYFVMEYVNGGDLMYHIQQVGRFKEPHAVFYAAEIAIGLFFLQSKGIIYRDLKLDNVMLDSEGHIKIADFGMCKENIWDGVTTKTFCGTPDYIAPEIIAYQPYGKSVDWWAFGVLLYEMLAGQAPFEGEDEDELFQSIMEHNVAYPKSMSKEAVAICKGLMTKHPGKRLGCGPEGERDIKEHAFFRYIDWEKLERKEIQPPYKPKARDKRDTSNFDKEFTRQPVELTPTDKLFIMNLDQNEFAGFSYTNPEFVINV

[12] = biological target: Serine/threonine-protein kinase D3 (Homo sapiens) (UniProt O94806); test: Inhibition of recombinant human full length GST-tagged PRKCN expressed in insect cells at 2 uM using Ser/Thr 17 as substrate measured after 1 hr by Z'-LYTE assay relative to control; details: Insect cell
[13] = biological target: Proto-oncogene tyrosine-protein kinase receptor Ret (Homo sapiens) (UniProt P07949); test: Inhibition of recombinant human GST-tagged RET (658-1114 residues) expressed in insect cells at 2 uM using Tyr 02 as substrate measured after 1 hr by Z'-LYTE assay relative to control; details: Insect cell
[14] = biological target: Rho-associated protein kinase 1 (Homo sapiens) (UniProt Q13464); test: Inhibition of recombinant human GST-tagged ROCK1 (1-535 residues) expressed in insect cells at 2 uM using Ser/Thr 07 as substrate measured after 1 hr by Z'-LYTE assay relative to control; details: Insect cell
Sequence of Rho-associated protein kinase 1 (Homo sapiens) (Q13464 2-1354 limits assumed): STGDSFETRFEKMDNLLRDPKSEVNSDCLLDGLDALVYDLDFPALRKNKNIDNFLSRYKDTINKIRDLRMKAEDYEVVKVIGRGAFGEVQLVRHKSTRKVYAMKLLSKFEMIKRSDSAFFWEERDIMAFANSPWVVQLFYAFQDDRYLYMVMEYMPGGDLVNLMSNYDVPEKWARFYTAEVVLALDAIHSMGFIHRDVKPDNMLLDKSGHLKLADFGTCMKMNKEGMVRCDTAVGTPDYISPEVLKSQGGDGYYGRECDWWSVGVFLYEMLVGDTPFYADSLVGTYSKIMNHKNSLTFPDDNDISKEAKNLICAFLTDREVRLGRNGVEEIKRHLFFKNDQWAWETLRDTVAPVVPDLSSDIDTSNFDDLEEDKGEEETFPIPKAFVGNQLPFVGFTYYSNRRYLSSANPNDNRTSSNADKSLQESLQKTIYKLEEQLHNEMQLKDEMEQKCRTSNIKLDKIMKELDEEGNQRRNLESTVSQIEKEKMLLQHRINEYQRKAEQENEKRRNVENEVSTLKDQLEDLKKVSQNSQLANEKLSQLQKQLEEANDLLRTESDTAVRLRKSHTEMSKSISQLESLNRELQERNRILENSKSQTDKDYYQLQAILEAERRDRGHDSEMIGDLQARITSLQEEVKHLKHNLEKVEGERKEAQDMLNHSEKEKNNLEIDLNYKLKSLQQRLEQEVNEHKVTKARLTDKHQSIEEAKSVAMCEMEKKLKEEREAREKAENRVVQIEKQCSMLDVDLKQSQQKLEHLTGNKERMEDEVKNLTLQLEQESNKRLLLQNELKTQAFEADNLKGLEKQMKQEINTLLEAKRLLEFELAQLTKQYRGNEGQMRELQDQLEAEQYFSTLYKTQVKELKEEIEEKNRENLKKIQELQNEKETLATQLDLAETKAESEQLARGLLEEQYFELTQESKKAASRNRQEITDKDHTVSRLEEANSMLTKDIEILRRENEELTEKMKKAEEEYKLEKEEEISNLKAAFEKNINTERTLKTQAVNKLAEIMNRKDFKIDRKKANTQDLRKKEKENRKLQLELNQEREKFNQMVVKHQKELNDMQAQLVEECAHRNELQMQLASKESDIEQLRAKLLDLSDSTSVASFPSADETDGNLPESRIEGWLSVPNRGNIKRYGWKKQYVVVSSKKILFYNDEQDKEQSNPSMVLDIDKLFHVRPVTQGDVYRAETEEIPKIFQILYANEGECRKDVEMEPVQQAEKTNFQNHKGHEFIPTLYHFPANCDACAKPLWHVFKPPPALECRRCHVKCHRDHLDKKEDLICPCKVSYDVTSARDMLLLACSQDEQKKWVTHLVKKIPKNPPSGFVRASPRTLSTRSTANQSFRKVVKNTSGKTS

[15] = biological target: Ribosomal protein S6 kinase alpha-4 (Homo sapiens) (UniProt O75676); test: Inhibition of recombinant human full length GST-tagged RPS6KA4 expressed in insect cells at 2 uM using Ser/Thr 01 as substrate measured after 1 hr by Z'-LYTE assay relative to control; details: Insect cell
[16] = biological target: Proto-oncogene tyrosine-protein kinase Src (Homo sapiens) (UniProt P12931); test: Inhibition of recombinant human full length SRC N1 expressed in baculovirus expression system at 2 uM using Tyr 02 as substrate measured after 1 hr by Z'-LYTE assay relative to control
Sequence of Proto-oncogene tyrosine-protein kinase Src (Homo sapiens) (P12931 2-536 limits assumed): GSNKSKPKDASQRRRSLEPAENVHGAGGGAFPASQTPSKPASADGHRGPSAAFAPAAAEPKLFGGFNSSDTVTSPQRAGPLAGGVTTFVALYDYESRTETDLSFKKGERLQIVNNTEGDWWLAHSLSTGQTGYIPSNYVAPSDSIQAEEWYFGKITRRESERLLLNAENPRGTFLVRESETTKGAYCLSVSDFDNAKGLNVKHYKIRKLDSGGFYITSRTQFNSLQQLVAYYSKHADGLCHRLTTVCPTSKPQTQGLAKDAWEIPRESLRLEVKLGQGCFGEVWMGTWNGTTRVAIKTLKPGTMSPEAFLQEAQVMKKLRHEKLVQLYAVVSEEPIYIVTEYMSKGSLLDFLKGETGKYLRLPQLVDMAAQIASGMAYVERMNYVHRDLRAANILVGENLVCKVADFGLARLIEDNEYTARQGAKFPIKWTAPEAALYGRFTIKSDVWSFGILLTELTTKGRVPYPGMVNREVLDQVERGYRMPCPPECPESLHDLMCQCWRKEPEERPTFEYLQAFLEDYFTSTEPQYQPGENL

MDA-MB-361 [17] = test: Antiproliferative activity against human MDA-MB-361 cells assessed as cell growth inhibition incubated for 3 days by MTS assay; type: functional, cell-based; details: MDA-MB-361, 72 h
MDA-MB-361 [18] = test: Inhibition of protein synthesis in human MDA-MB-361 cells at 3 micromol/L incubated for 3 hrs by [3H] methionine incorporation based scintillation counter analysis relative to control; type: functional; details: MDA-MB-361, 3 h, dose 3 µmol/L
HEK293 = test: Antiproliferative activity against HEK293 cells assessed as reduction in polysomes at 0.5 micromol/L incubated for 16 hrs; type: functional, Homo sapiens; details: dose 0.5 µmol/L
U-87 MG [19] = test: Antitumor activity against human U-87MG cells assessed as reduction in HIF-1alpha level at 0.025 to 2 micromol/L incubated for 6 hrs by immunoblot analysis; type: functional, cell-based; details: U-87MG ATCC, dose 0.025-2 µmol/L
MDA-MB-361 [20] = test: Antitumor activity against human MDA-MB-361 cells xenografted in female nude mouse model assessed as reduction in P-AKT at T308 level at 50 mg/kg, iv administered once a week and measured at least 8 hrs by immunoblot analysis; type: functional, organism-based
MDA-MB-361 [21] = test: Antitumor activity against human MDA-MB-361 cells xenografted in female nude mouse model assessed as suppression in P-AKT at S473 level at 50 mg/kg, po qd administered as 5 days on/2 days off regimen for 4 cycles by immunoblot analysis; type: functional, organism-based; details: time 28.0 day
U-87 MG [22] = test: Antitumor activity against PTEN-null human U-87MG cells xenografted in female nude mouse model assessed as tumor growth delay at 25 to 50 mg/kg, po qd administered as 5 days on/2 days off regimen for 4 cycles; type: functional, organism-based; details: U-87MG ATCC, dose 25-50 mg/kg, time 28.0 day
A549 = test: Antitumor activity against human A549 cells xenografted in female nude mouse model assessed as suppression in tumor growth at 25 mg/kg, po qd administered as 5 days on/2 days off regimen for 4 cycles relative to control; type: functional; details: time 28 day
mTORC2 (Homo sapiens) = mTORC2 (Homo sapiens) (UniProt P42345+Q6R327+Q9BVC4+Q9BPZ7); details: PC3MM2, dose 0.1-1 µM, time 6.0 hrs
A498 = test: cells; details: Homo sapiens, A498, 72 h
Description: Antiproliferative activity against human A498 cells assessed as cell growth inhibition incubated for 3 days by MTS assay

CNC(=O)Nc1ccc(-c2nc(N3CC4CCC(C3)O4)c3cnn(C4CCC5(CC4)OCCO5)c3n2)cc1
inhibition [1]: -5% | inhibition [2]: 1% | inhibition [3]: 11% | inhibition [4]: 6% | inhibition [5]: 3% | inhibition [6]: 17% | inhibition [7]: 7% | inhibition [8]: 8% | inhibition [9]: 0% | inhibition [10]: -3% | inhibition [11]: 9% | inhibition [12]: 4% | inhibition [13]: 4% | inhibition [14]: -8% | inhibition [15]: 1% | inhibition [16]: 7% | IC50 (MDA-MB-361 [17]): 12 nM | inhibition at 3 µM (MDA-MB-361 [18]): ~50% | Activity (HEK293): 0.58 | Activity (U-87 MG [19]): Active | Activity (MDA-MB-361 [20]): inactive | Activity (MDA-MB-361 [21]): Active | Activity (U-87 MG [22]): Active | Activity (A549): 100% | inhibition (mTORC2 (Homo sapiens)): inactive | IC50 (A498): 100 nM
